Laboratory results published in ChEMBL document CHEMBL4312023, “Design of novel monoamine oxidase-B inhibitors based on piperine scaffold: Structure-activity-toxicity, drug-likeness and efflux transport studies” (Eur J Med Chem, 2020).

What was measured:
[1] = target: T1, Amine oxidase [flavin-containing] B (Homo sapiens, UniProt P27338); test: Inhibition of human microsomal MAO-B expressed in baculovirus infected BTI-TN-5B1-4 cells assessed as reduction in 4-hydroxyquinoline formation at 10 uM using kynuramine as substrate preincubated with substrate for 10 mins followed by enzyme addition by spectrophotometric analysis; settings: BTI-TN-5B1-4, human
T1 sequence (P27338 whole entry): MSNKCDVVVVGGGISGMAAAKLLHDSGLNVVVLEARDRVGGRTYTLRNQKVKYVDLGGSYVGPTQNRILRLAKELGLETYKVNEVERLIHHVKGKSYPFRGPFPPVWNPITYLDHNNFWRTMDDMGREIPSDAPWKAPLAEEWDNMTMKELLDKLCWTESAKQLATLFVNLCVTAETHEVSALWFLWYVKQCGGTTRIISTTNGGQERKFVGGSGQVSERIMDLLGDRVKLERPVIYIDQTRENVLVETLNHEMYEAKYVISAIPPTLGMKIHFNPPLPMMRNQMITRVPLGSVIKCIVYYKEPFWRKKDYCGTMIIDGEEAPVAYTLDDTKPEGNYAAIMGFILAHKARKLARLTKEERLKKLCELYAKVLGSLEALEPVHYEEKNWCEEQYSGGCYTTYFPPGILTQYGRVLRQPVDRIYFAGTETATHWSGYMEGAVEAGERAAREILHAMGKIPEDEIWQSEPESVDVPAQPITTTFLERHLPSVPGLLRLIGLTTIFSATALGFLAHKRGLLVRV

[2] = target: T2, Amine oxidase [flavin-containing] A (Homo sapiens, UniProt P21397); settings: BTI-TN-5B1-4, human, read-out: INH
T2 sequence (P21397 whole entry): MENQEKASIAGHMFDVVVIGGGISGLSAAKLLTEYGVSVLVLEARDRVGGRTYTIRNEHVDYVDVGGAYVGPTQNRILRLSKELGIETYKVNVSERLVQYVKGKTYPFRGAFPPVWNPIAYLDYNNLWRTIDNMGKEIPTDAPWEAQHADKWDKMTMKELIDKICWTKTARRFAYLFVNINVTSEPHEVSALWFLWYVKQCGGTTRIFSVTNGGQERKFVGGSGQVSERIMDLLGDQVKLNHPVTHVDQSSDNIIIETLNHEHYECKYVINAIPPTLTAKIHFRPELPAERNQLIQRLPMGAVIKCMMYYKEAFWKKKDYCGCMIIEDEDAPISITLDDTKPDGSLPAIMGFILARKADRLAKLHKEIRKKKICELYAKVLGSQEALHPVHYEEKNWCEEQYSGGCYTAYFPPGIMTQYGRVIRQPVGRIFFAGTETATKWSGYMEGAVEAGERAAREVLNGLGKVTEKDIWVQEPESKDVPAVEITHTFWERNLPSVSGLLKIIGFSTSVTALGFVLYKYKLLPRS
Description: Inhibition of human microsomal MAO-A expressed in baculovirus infected BTI-TN-5B1-4 cells assessed as reduction in 4-hydroxyquinoline formation at 10 uM using kynuramine as substrate preincubated with substrate for 10 mins followed by enzyme inhibition by spectrophotometric analysis

[3] = Chromatographic hydrophobicity index of compound at 250 uM at pH 7.4 by HPLC analysis; assay type: ADME; settings: pH 7.4, 250 µM
[4] = Retention time of compound at pH 7.4 by LC-UV analysis; assay type: physicochemical; settings: buffer
[5] = Cytotoxicity against human Caco2 cells assessed as cellular metabolic activity by measuring resazurin reduction at 10 to 50 uM incubated for 24 hrs followed by incubation with resazurin for 1 hr by fluorescence based assay (reference value: >85%); assay type: ADME, cell-based; settings: Caco-2 cells, read-out: Activity
[6] = Chromatographic hydrophobicity index, log D of compound at 250 uM at pH 7.4 by HPLC analysis; assay type: physicochemical; settings: buffer
[7] = target: T3, ATP-dependent translocase ABCB1 (Homo sapiens, UniProt P08183); test: Inhibition of P-gp in human Caco2 cells assessed as decrease in Rho123 efflux by measuring decrease in ratio between fluorescence intensity of Zos-inhibited Rho123 accumulation and fluorescence intensity of non-inhibited Rho123 accumulation at 10 uM using Rho123 as substrate preincubated for 30 mins in presence of 5 uM P-gp inhibitor, Zos followed by incubation with Rhodamine 123 for 90 mins by fluorescence spectroscopy analysis; assay type: cell-based; settings: 1.5 h
T3 sequence (P08183 whole entry): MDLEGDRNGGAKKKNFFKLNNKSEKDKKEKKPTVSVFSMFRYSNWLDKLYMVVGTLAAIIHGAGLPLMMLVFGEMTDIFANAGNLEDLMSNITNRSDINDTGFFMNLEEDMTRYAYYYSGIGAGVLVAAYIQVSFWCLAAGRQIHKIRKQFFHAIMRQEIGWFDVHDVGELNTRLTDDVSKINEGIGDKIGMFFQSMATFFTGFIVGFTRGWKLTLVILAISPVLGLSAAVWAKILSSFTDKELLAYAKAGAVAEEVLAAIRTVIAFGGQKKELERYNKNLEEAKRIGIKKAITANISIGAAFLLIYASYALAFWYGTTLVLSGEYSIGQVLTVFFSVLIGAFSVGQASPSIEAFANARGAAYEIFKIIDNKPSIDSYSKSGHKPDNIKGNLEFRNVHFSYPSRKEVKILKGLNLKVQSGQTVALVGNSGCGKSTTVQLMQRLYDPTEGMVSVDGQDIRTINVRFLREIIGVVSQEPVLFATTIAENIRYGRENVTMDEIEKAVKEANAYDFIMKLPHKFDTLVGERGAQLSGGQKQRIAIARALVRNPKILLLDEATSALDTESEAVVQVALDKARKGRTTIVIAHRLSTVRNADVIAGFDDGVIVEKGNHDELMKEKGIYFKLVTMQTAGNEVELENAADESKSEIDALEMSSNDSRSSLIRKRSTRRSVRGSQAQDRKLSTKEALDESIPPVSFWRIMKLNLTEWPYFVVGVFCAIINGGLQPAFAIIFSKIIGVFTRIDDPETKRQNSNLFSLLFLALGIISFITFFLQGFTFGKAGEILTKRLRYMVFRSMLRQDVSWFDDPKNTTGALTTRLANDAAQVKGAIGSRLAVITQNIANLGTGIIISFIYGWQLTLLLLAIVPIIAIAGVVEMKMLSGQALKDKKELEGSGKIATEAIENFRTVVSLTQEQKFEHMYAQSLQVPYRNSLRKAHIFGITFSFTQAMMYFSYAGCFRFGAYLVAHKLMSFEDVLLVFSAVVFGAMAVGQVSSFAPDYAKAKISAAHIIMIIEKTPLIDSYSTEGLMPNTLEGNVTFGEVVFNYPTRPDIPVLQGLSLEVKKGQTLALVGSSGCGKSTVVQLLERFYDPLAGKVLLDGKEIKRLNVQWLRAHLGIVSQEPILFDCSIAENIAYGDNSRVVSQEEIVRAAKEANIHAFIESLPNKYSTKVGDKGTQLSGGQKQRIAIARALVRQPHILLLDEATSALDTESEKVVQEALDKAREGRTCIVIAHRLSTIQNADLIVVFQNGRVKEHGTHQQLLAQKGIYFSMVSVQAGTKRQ

[8] = (§1) Cytotoxicity against human SH-SY5Y cells assessed as lysosomal activity by measuring neutral red uptake at 10 to 50 uM incubated for 24 hrs followed by incubation with neutral red solution for 2 hrs by microplate reader analysis (reference value: >85%); assay type: cell-based; settings: SH-SY5Y cells, read-out: Activity
[9] = (§2) Cytotoxicity against human SH-SY5Y cells assessed as cellular metabolic activity by measuring resazurin reduction at 10 to 50 uM incubated for 24 hrs followed by incubation with resazurin for 2 hrs by fluorescence based assay (reference value: >85%); assay type: ADME, cell-based; settings: SH-SY5Y cells, read-out: Activity
Homo sapiens = species on record: Homo sapiens; test: Selectivity index, ratio of IC50 for human microsomal MAO-A expressed in baculovirus infected […] cells to IC50 for human microsomal MAO-B expressed in baculovirus infected […] cells using kynuramine as substrate
[10] = target: T1, Amine oxidase [flavin-containing] B; test: biochemical; assay type: cell-based, BTI-TN-5B1-4
Description: Inhibition of human microsomal MAO-B expressed in baculovirus infected BTI-TN-5B1-4 cells assessed as reduction in 4-hydroxyquinoline formation using kynuramine as substrate preincubated with substrate for 10 mins followed by enzyme addition by spectrophotometric analysis

[11] = Cytotoxicity against human Caco2 cells assessed as lysosomal activity by measuring neutral red uptake at 10 to 50 uM incubated for 24 hrs followed by incubation with neutral red solution for 1 hr by microplate reader analysis (reference value: >85%); assay type: cell-based; settings: Caco-2 cells, read-out: Activity
[12] = target: T1, Amine oxidase [flavin-containing] B; test: Reversible inhibition of human microsomal MAO-B expressed in baculovirus infected BTI-TN-5B1-4 cells assessed as 4-hydroxyquinoline formation using kynuramine as substrate incubated up to 140 mins by spectrophotometric analysis; settings: bti-tn-5b1-4, 140 min
SH-SY5Y [13] = test: as §1; assay type: cell-based; settings: sh-sy5y, 24 h, 50 µM
SH-SY5Y [14] = test: as §2; assay type: ADME, cell-based; settings: sh-sy5y, 24 h, 50 µM
[15] = target: T3, ATP-dependent translocase ABCB1; test: Induction of P-gp in human Caco2 cells assessed as decrease in Rho123 intracellular accumulation by measuring increase in ratio between fluorescence intensity of Zos-inhibited Rho123 accumulation and fluorescence intensity of non-inhibited Rho123 accumulation at 10 uM using Rho123 as substrate preincubated for 30 mins in presence of 5 uM P-gp inhibitor, Zos followed by incubation with Rhodamine 123 for 90 mins by fluorescence spectroscopy analysis; assay type: cell-based; settings: 1.5 h
[16] = target: T1, Amine oxidase [flavin-containing] B; test: Competitive inhibition of human microsomal MAO-B expressed in baculovirus infected BTI-TN-5B1-4 cells assessed as inhibition constant using kynuramine as substrate preincubated with substrate at varying concentrations for 10 mins followed by enzyme addition by Lineweaver-Burk plot analysis
[17] = target: T1, Amine oxidase [flavin-containing] B; test: Competitive inhibition of human microsomal MAO-B expressed in baculovirus infected BTI-TN-5B1-4 cells assessed as constant Vmax using kynuramine as substrate preincubated with substrate at varying concentrations for 10 mins followed by enzyme addition by Lineweaver-Burk plot analysis
[18] = target: T1, Amine oxidase [flavin-containing] B; test: Competitive inhibition of human microsomal MAO-B expressed in baculovirus infected BTI-TN-5B1-4 cells assessed as increase in substrate Km using kynuramine as substrate preincubated with substrate at varying concentrations for 10 mins followed by enzyme addition by Lineweaver-Burk plot analysis
[19] = target: T2, Amine oxidase [flavin-containing] A; test: biochemical
Description: Inhibition of human microsomal MAO-A expressed in baculovirus infected BTI-TN-5B1-4 cells assessed as reduction in 4-hydroxyquinoline formation using kynuramine as substrate preincubated with substrate for 10 mins followed by enzyme addition by spectrophotometric analysis

[20] = Cytotoxicity against human SH-SY5Y cells assessed as lysosomal activity by measuring neutral red uptake at 50 uM incubated for 24 hrs followed by incubation with neutral red solution for 2 hrs by microplate reader analysis (reference value: >85%); assay type: cell-based; settings: read-out: Activity
[21] = Cytotoxicity against human SH-SY5Y cells assessed as cellular metabolic activity by measuring resazurin reduction at 50 uM incubated for 24 hrs followed by incubation with resazurin for 2 hrs by fluorescence based assay (reference value: >85 %); assay type: ADME, cell-based; settings: read-out: Activity
[22] = Solubility of compound in sodium phosphate buffer at >10 uM at pH 7.4; assay type: physicochemical

SMILES: N#C/C(=C\C=C\c1ccc2c(c1)OCO2)C(=O)NCCc1ccccc1
- inhibition at 10 µM [1]: < 50%
- inhibition at 10 µM [2]: < 50%

SMILES: O=C(/C=C/C=C/c1ccc2c(c1)OCO2)NCCc1ccccc1
- inhibition at 10 µM [1]: < 50%
- inhibition at 10 µM [2]: < 50%

SMILES: CCCCCCC(=O)c1ccccc1
- CHI [3]: 111.8
- Retention_time [4]: 13.67 min

SMILES: CCC(=O)c1ccccc1 [PROPIOPHENONE]
- CHI [3]: 78.41
- Retention_time [4]: 10.63 min

SMILES: N#C/C(=C\C=C\c1ccc2c(c1)OCO2)C(=O)OCCc1ccccc1
- viability at 24 h, up to 50 µM [5]: > 85%
- CHI [3]: 100.75
- chromatographic logD at 250 µM [6]: 3.82
- Retention_time [4]: 12.37 min
- inhibition (INH) [7]: Active
- viability at 24 h [8]: > 85%
- viability at 24 h, up to 50 µM [9]: > 85%
- Ratio IC50 (Homo sapiens): > 101
- IC50 [10]: 99.2 nM
- viability at 24 h [11]: > 85%
- inhibition at 10 µM [2]: < 50%

SMILES: C[C@H](NCc1ccc(OCc2cccc(F)c2)cc1)C(N)=O [SAFINAMIDE]
- inhibition (INH) [12]: Active

SMILES: COc1cc2c(c(OC)c1OC)-c1ccc(OC)c(=O)cc1[C@@H](NC(C)=O)CC2 [COLCHICINE]
- CHI [3]: 44.32
- Retention_time [4]: 8.35 min

SMILES: N#C/C(=C\C=C\c1ccc2c(c1)OCO2)C(=O)NCc1ccccc1
- Ratio IC50 (Homo sapiens): > 21
- IC50 [10]: 471 nM
- inhibition at 10 µM [2]: < 50%

SMILES: Cn1c(=O)c2[nH]cnc2n(C)c1=O.O [THEOPHYLLINE]
- CHI [3]: 18.19
- Retention_time [4]: 7.31 min

SMILES: CCCCC(=O)c1ccccc1 [VALEROPHENONE]
- CHI [3]: 97.67
- Retention_time [4]: 12.04 min

SMILES: c1ccc2[nH]ccc2c1 [INDOLE]
- CHI [3]: 69.15
- Retention_time [4]: 10.27 min

SMILES: Cn1c(=O)c2c(ncn2C)n(C)c1=O [CAFFEINE]
- CHI [3]: 24.12
- Retention_time [4]: 7.56 min

SMILES: NC(=O)N1c2ccccc2C=Cc2ccccc21 [CARBAMAZEPINE]
- CHI [3]: 58.45
- Retention_time [4]: 9.3 min

SMILES: CCCC(=O)c1ccccc1 [BUTYROPHENONE]
- CHI [3]: 88.49
- Retention_time [4]: 11.32 min

SMILES: N#C/C(=C\C=C\c1ccc2c(c1)OCO2)C(=O)Oc1ccccc1
- Ratio IC50 (Homo sapiens): > 47
- IC50 [10]: 215 nM
- inhibition at 10 µM [2]: < 50%

SMILES: O=C(/C=C/C=C/c1ccc2c(c1)OCO2)NCc1ccccc1
- inhibition at 10 µM [1]: < 50%
- inhibition at 10 µM [2]: < 50%

SMILES: N#C/C(=C\C=C\c1ccc2c(c1)OCO2)C(=O)Nc1ccccc1
- inhibition at 10 µM [1]: < 50%
- inhibition at 10 µM [2]: < 50%

SMILES: O=C(/C=C/C=C/c1ccc2c(c1)OCO2)N1CCCCC1 [PIPERINE]
- CHI [3]: 73.45
- chromatographic logD at 250 µM [6]: 2.39
- Retention_time [4]: 10.61 min
- inhibition (INH) [7]: Not Active
- Activity (SH-SY5Y [13]): Non-Toxic
- Activity (SH-SY5Y [14]): Non-Toxic
- Ratio IC50 (Homo sapiens): 10
- IC50 [10]: 1050 nM
- Activity [15]: Not Active
- inhibition at 10 µM [2]: < 50%

SMILES: O=C(/C=C/C=C/c1ccc2c(c1)OCO2)OCc1ccccc1
- viability at 24 h, up to 50 µM [5]: > 85%
- CHI [3]: 102.14
- chromatographic logD at 250 µM [6]: 3.9
- Retention_time [4]: 12.46 min
- inhibition (INH) [7]: Not Active
- viability at 24 h [8]: > 85%
- viability at 24 h, up to 50 µM [9]: > 85%
- Ki [16]: 75 nM
- inhibition (INH) [17]: Active
- inhibition (INH) [18]: Active
- Ratio IC50 (Homo sapiens): 25
- IC50 [10]: 167 nM
- viability at 24 h [11]: > 85%
- Activity [15]: Not Active
- IC50 [19]: 4240 nM

SMILES: O=C(/C=C/C=C/c1ccc2c(c1)OCO2)Oc1ccccc1
- viability at 24 h, 50 µM [20]: 59.4%
- viability at 24 h, 50 µM [21]: 79.7%
- solubility [22]: Insoluble
- Ratio IC50 (Homo sapiens): > 64
- IC50 [10]: 156 nM

SMILES: O=C(/C=C/C=C/c1ccc2c(c1)OCO2)Nc1ccccc1
- inhibition at 10 µM [1]: < 50%
- inhibition at 10 µM [2]: < 50%

SMILES: CC(=O)Nc1ccc(O)cc1 [ACETAMINOPHEN]
- CHI [3]: 20.59
- Retention_time [4]: 7.45 min

SMILES: O=C(/C=C/C=C/c1ccc2c(c1)OCO2)OCCc1ccccc1
- Ratio IC50 (Homo sapiens): > 22
- IC50 [10]: 448 nM
- inhibition at 10 µM [2]: < 50%

SMILES: O=C(O)/C=C/C=C/c1ccc2c(c1)OCO2 [PIPERIC ACID]
- inhibition at 10 µM [1]: < 50%
- inhibition at 10 µM [2]: < 50%

SMILES: N#C/C(=C\C=C\c1ccc2c(c1)OCO2)C(=O)O
- inhibition at 10 µM [1]: < 50%
- inhibition at 10 µM [2]: < 50%

SMILES: c1ccc2[nH]cnc2c1 [BENZIMIDAZOLE]
- CHI [3]: 30.71
- Retention_time [4]: 8 min
